In patent US20140011799A1 (Bristol-Myers Squibb Company, priority 2012, published 2014) one finds IC50 data, which are given here for 22 molecules.

What is called IC50 is the midpoint of a concentration-inhibition curve.

The assay deals with T1, Endothelial lipase (EL) (Homo sapiens, UniProt Q9Y5X9).
T1 construct: HT-1080 cells that were transformed using RAGE technology (Athersys) to overexpress endogenous EL; endogenous in cells; conditioned medium used
T1 sequence (Q9Y5X9 21-500): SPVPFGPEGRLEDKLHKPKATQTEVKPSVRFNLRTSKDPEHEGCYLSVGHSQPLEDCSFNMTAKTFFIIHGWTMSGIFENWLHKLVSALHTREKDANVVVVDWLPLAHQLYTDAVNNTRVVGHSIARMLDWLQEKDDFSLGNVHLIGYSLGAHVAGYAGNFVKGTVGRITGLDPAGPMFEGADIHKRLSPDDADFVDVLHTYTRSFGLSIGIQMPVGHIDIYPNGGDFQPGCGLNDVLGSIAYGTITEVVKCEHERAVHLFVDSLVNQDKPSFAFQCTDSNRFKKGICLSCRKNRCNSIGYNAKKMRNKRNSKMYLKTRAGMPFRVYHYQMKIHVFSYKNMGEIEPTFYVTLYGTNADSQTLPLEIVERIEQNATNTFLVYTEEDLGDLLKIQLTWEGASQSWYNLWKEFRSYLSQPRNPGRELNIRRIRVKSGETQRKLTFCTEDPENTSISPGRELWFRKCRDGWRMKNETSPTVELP
In words: Endothelial lipase (EL) enzymatic assay, fluorescent substrate A10070 in DMPG vesicles. Conditions: EL from conditioned media of HT-1080 cells; compound preincubated 30 min at 37° C; read-out: EL IC50. The format is biochemical. The protocol: Endothelial lipase (EL) and hepatic lipase (HL) activities were measured using a fluorescent substrate, A10070, (Invitrogen, CA) doped into an artificial vesicle containing DMPG (Avanti Polar Lipids) as the excipient. Vesicles were prepared by combining 571 μL of 29 mM DMPG in a 1:1 mixture of MeOH and CHCl3 with 2000 μL of 1 mM A10070 in a 1:1 mixture of MeOH and CHCl3. The mixture was dried under nitrogen in multiple vials then resuspended in 20 mL total volume of 50 mM HEPES pH 8.0 buffer containing 50 mM NaCl and 0.2 mM EDTA. The sample was allowed to sit at room temperature for 15 min and then was sonicated 3×4 mins on ice with a Branson Sonicator using duty cycle 1. This preparation provides vesicles with a mole fraction of 0.11 for the FRET substrate.
The enzymatic assay was measured using 384-well white Optiplates. Each well contained 20 μL of assay buffer (50 mM HEPES pH 8.0, 50 mM NaCl and 1 mM CaCl2) and 0.25 μL of a DMSO solution containing a compound of interest. EL or HL (10 μL) was added and allowed to incubate with the compound for 30 min at 37° C. The source of EL was conditioned media obtained from HT-1080 cells that were transformed using RAGE technology (Athersys) to overexpress endogenous EL, and HL was partially purified from conditioned media obtained from COS cells overexpressing HL. The reaction was started by the addition of 10 μL of a 1:10 dilution of vesicles. The final total reaction volume was […]. The reaction rates were measured on a Gemini plate reader with an excitation wavelength of 490 nm and an emission wavelength of 530 nm. Readings were taken over a period of 60 minutes, and the slope between 300 and 900 secs of the readout was used to calculate the rate of the reaction.
As to `NS(=O)(=O)NCc1nnc(C(c2nc3ccc(-c4ccccc4)cc3s2)S(=O)(=O)C2CC2)o1` (stereo not shown) [Example 74, N-({5-[(cyclopropylsulfonyl) (6-phenyl-1,3-benzothiazol-2-yl)methyl]-1,3,4-oxadiazol-2-yl}methyl) sulfuric diamide], the IC50 was below 0.01 µM.

With `C[C@]1(Cc2nnc(C(c3nc4ccc(-c5ccccc5)cc4s3)S(C)(=O)=O)o2)OC(=O)NC1=O` (stereo partly drawn) [Example 42, (5R)-5-Methyl-5-((5-((methylsulfonyl)(6-phenylbenzo[d]thiazol-2-yl)methyl)-1,3,4-oxadiazol-2-yl)methyl)oxazolidine-2,4-dione], the IC50 was below 0.01 µM.

Turning to `NS(=O)(=O)NCc1nnc(C(c2nc3ccc(-c4ccccc4)cc3s2)S(=O)(=O)CCCc2ccccc2)o1` (stereo not shown) [Example 54, N-((5-((6-phenyl-1,3-benzothiazol-2-yl) ((3-phenylpropyl)sulfonyl)methyl)-1,3,4-oxadiazol-2-yl)methyl) sulfamide], the IC50 is around 0.01 µM.

As for `NS(=O)(=O)NCc1nnc(C(c2nc3ccc(-c4ccccc4)cc3s2)S(=O)(=O)Cc2ccccc2F)o1` (stereo not shown) [Example 51, N-((5-(((2-fluorobenzyl)sulfonyl)(6-phenyl-1,3-benzothiazol-2-yl)methyl)-1,3,4-oxadiazol-2-yl)methyl)sulfamide], the IC50 was below 0.01 µM.

On to `CS(=O)(=O)C(c1nnc(CN)o1)c1nc2ccc(-c3ccccc3)cc2s1` (stereo not shown) [Example 85, (5-((Methylsulfonyl)(6-phenylbenzo[d]thiazol-2-yl)methyl)-1,3,4-oxadiazol-2-yl)methanamine], for which the IC50 stood at 0.048 µM.

Turning to `CS(=O)(=O)C(c1nnc(CC2SC(=O)NC2=O)o1)c1nc2c(F)cc(-c3ccccc3)cc2s1` (stereo not shown) [Example 94, 5-((5-((4-fluoro-6-phenyl-benzo[d]thiazol-2-yl) (methylsulfonyl)methyl)-1,3,4-oxadiazol-2-yl)methyl)thiazolidine-2,4-dione], the IC50 was below 0.01 µM.

Regarding `CN(C)C(=O)Cc1nnc(C(c2nc3ccc(-c4ccccc4)cc3s2)S(=O)(=O)Cc2ccccc2)o1` (stereo not shown) [Example 39, 2-(5-((benzylsulfonyl)(6-phenylbenzo[d]thiazol-2-yl)methyl)-1,3,4-oxadiazol-2-yl)-N,N-dimethylacetamide], the IC50 is 0.19 µM.

In the case of `N#CC1(NC(=O)Cc2nnc(C(c3nc4ccc(-c5ccccc5)cc4s3)S(=O)(=O)Cc3ccccc3)o2)CC1` (stereo not shown) [Example 40, 2-(5-((benzylsulfonyl)(6-phenylbenzo[d]thiazol-2-yl)methyl)-1,3,4-oxadiazol-2-yl)-N-(1-cyanocyclopropyl)acetamide], the IC50 was below 0.01 µM.

Turning to `NS(=O)(=O)NCc1nnc(C(c2nc3ccc(-c4ccccc4)cc3s2)S(=O)(=O)Cc2ccc(F)cc2)o1` (stereo not shown) [Example 69, N-((5-(((4-fluorobenzyl)sulfonyl)(6-phenyl-1,3-benzothiazol-2-yl)methyl)-1,3,4-oxadiazol-2-yl)methyl)sulfamide], the IC50 was below 0.01 µM.

For the molecule `NS(=O)(=O)NCc1nnc(C(c2nc3ccc(-c4ccccc4)cc3s2)S(=O)(=O)Cc2cccc(F)c2)o1` (stereo not shown) [Example 56, N-((5-(((3-fluorobenzyl)sulfonyl)(6-phenyl-1,3-benzothiazol-2-yl)methyl)-1,3,4-oxadiazol-2-yl)methyl)sulfamide], the IC50 was below 0.01 µM.

Turning to `NS(=O)(=O)NCc1nnc(C(c2nc3ccc(-c4ccc(F)nc4)cc3s2)S(=O)(=O)Cc2ccccc2)o1` (stereo not shown) [Example 75, N-((5-((benzylsulfonyl) (6-(6-fluoro-3-pyridinyl)-1,3-benzothiazol-2-yl)methyl)-1,3,4-oxadiazol-2-yl)methyl)sulfamide], the concentration for half-maximal inhibition (IC50) is below 0.01 µM.

`COc1ccc(OCCCS(=O)(=O)C(c2nnc(CNS(N)(=O)=O)o2)c2nc3ccc(-c4ccccc4)cc3s2)cc1` (stereo not shown) [Example 55, N-((5-(((3-(4-methoxyphenoxy)propyl)sulfonyl) (6-phenyl-1,3-benzothiazol-2-yl)methyl)-1,3,4-oxadiazol-2-yl)methyl)sulfamide]: the half-inhibitory concentration (IC50) is below 0.01 µM.

With `CC1(Cc2nnc(C(c3nc4ccc(-c5ccnc(F)c5)cc4s3)S(C)(=O)=O)o2)NC(=O)NC1=O` (single isomer, unassigned; isomer b) [Example 12, 5-((5-((6-(2-fluoropyridin-4-yl)benzo[d]thiazol-2-yl)(methylsulfonyl)methyl)-1,3,4-oxadiazol-2-yl)methyl)-5-methylimidazolidine-2,4-dione (Isomer B)], the IC50 was 0.054 µM.

Take `O=C1NC(=O)C(Cc2nnc(C(c3nc4c(F)cc(-c5ccccc5)cc4s3)S(=O)(=O)Cc3ccccc3)o2)S1` (stereo not shown) [Example 93, 5-((5-((benzylsulfonyl) (4-fluoro-6-phenyl-benzo[d]thiazol-2-yl)methyl)-1,3,4-oxadiazol-2-yl)methyl)thiazolidine-2,4-dione]: the IC50 was below 0.01 µM.

As to `CC1(Cc2nnc(C(c3nc4ccc(-c5ccnc(F)c5)cc4s3)S(=O)(=O)Cc3ccccc3)o2)NC(=O)NC1=O` (single isomer, unassigned; isomer b) [Example 10, 5-((5-((benzylsulfonyl)(6-(2-fluoropyridin-4-yl)benzo[d]thiazol-2-yl)methyl)-1,3,4-oxadiazol-2-yl)methyl)-5-methylimidazolidine-2,4-dione (Isomer B)], the IC50 was determined as 0.019 µM.

Consider `CC1(Cc2nnc(C(c3nc4ccc(-c5ccc(C(=O)N6CCOCC6)cc5)cc4s3)S(C)(=O)=O)o2)NC(=O)NC1=O` (single isomer, unassigned; isomer a) [Example 14, 5-methyl-5-((5-((methylsulfonyl)(6-(4-(morpholine-4-carbonyl)phenyl)benzo[d]thiazol-2-yl)methyl)-1,3,4-oxadiazol-2-yl)methyl)imidazolidine-2,4-dione (Isomer A)], for which the IC50 was 0.012 µM.

With `COc1nc(-c2nnc(C(c3nc4ccc(-c5ccccc5)cc4s3)S(=O)(=O)CCC(F)(F)F)o2)c(O)c(=O)[nH]1` (stereo not shown) [Example 44, 5-Hydroxy-2-methoxy-6-(5-((6-phenylbenzo[d]thiazol-2-yl)((3,3,3-trifluoropropyl)sulfonyl)methyl)-1,3,4-oxadiazol-2-yl)pyrimidin-4(3H)-one], the IC50 amounted to 0.077 µM.

For the molecule `O=C1NC(=O)C(Cc2nnc(C(c3nc4cc(F)c(-c5ccccc5)cc4s3)S(=O)(=O)Cc3ccccc3)o2)S1` (stereo not shown) [Example 91, 5-((5-((benzylsulfonyl) (5-fluoro-6-phenyl-benzo[d]thiazol-2-yl)methyl)-1,3,4-oxadiazol-2-yl)methyl) thiazolidine-2,4-dione], the IC50 was below 0.01 µM.

Consider `CS(=O)(=O)C(c1nnc(CNS(N)(=O)=O)o1)c1nc2ccc(-c3ccccc3)cc2s1` (stereo not shown) [Example 46, N-({5-[(M ethylsulfonyl)(6-phenyl-1,3-benzothiazol-2-yl)methyl]-1,3,4-oxadiazol-2-yl}methyl)sulfuric diamide], for which the IC50 is below 0.01 µM.

As to `NS(=O)(=O)NCc1nnc(C(c2nc3ccc(-c4ccccc4)cc3s2)S(=O)(=O)Cc2ccccc2)o1` (stereo not shown) [Example 47, N-((5-((benzylsulfonyl) (6-phenyl-1,3-benzothiazol-2-yl)methyl)-1,3,4-oxadiazol-2-yl)methyl)sulfamide], the IC50 is below 0.01 µM.

On to `CC1(Cc2nnc(C(c3nc4ccc(-c5ccc(F)nc5)cc4s3)S(C)(=O)=O)o2)NC(=O)NC1=O` (single isomer, unassigned; isomer b) [Example 22, 5-((5-((6-(6-fluoropyridin-3-yl)benzo[d]thiazol-2-yl)(methylsulfonyl)methyl)-1,3,4-oxadiazol-2-yl)methyl)-5-methylimidazolidine-2,4-dione (Isomer B)], for which the IC50 worked out at 0.027 µM.

Consider `O=S(=O)(O)Cc1nnc(C(c2nc3ccc(-c4ccc(OCc5ccccc5)cc4)cc3s2)S(=O)(=O)CCC(F)(F)F)o1` (stereo not shown) [Example 11, (5-((6-(4-(benzyloxy)phenyl)benzo[d]thiazol-2-yl)((3,3,3-trifluoropropyl)sulfonyl)methyl)-1,3,4-oxadiazol-2-yl)methanesulfonic acid], for which the IC50 was above 0.01 µM.
